# Measured values from patent US8796340B2, “Pharmaceutical composition comprising propofol” (Novaliq GmbH, priority 2009, dated 2014).
# Description: In further embodiments, the propofol concentration is from about 0.01 wt.-% to about 80 wt.-%, or from about 0.1 wt-% to about 50 wt.-%, or from about 1 wt.-% to about 20 wt.-%, or from about 2 wt.-% to about 20 wt.-%, respectively. In further embodiments, the strength is about 1 wt.-% or higher, such as about 2 wt.-%, 5 wt.-%, 10 wt.-%, 20 wt.-%, or 25 wt.-%.
smiles,measurement,setting,value
"CC(C)c1cccc(C(C)C)c1O [propofol, 2,6-di(propan-2-yl)phenol]",propofol concentration possible in SFA solutions,SFA solutions,up to 960 mg/mL
same,miscibility with SFA's,"in most SFA's including F4H5, F6H6 and F6H8",freely miscible
